Laboratory results from ChEMBL document CHEMBL4825677, “Design, synthesis and biological evaluation of novel benzofuran derivatives as potent LSD1 inhibitors” (Eur J Med Chem, 2021).

Tests used:
[1] = molecular target: T1, Amine oxidase [flavin-containing] A (Homo sapiens, UniProt P21397); assay: Inhibition of N-terminal FLAG-tagged human recombinant MAO-A expressed in baculovirus-infected Sf9 cells by […]
T1 sequence (P21397 whole entry): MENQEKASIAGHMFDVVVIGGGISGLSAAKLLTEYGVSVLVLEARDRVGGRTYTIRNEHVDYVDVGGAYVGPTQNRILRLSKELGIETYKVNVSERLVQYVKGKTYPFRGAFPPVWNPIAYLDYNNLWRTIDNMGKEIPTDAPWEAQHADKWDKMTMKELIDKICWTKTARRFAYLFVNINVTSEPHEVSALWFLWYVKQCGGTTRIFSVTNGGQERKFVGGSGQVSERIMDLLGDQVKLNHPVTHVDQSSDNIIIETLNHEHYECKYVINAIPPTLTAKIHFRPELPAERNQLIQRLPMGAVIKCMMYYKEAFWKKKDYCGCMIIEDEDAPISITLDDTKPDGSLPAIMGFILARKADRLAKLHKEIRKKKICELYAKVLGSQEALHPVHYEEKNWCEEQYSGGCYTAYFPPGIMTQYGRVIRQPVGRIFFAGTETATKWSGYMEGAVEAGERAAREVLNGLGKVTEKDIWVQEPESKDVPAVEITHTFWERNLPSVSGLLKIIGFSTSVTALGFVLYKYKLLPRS

[2] = molecular target: T2, Amine oxidase [flavin-containing] B (Homo sapiens, UniProt P27338); assay: Inhibition of N-terminal FLAG-tagged human recombinant MAO-B expressed in baculovirus-infected Sf9 cells by […]
T2 sequence (P27338 whole entry): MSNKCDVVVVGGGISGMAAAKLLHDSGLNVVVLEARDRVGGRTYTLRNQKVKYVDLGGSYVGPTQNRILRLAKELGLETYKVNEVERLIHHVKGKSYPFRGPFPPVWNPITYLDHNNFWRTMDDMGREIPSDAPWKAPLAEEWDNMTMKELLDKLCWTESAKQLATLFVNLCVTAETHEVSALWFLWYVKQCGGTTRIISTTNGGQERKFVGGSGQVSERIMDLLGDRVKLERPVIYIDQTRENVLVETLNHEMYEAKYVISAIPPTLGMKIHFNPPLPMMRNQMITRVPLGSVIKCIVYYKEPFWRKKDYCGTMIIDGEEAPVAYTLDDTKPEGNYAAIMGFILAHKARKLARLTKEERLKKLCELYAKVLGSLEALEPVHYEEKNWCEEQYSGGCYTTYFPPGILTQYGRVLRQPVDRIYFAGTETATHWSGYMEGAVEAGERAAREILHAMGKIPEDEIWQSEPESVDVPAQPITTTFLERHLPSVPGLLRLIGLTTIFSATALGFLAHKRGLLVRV

[3] = Metabolic stability in human liver microsomes assessed as half-life by LC-MS/MS analysis; type: ADME, Microsome
[4] = Metabolic stability in human liver microsome assessed as intrinsic clearance by LC-MS/MS analysis; type: ADME; conditions: liver microsomes, read-out: CLH
[5] = Metabolic stability in human liver assessed as intrinsic clearance by LC-MS/MS analysis; type: ADME, tissue-based; conditions: read-out: CLH
[6] = Microsomal stability in human liver microsomes assessed as parent compound remaining after 60 mins in presence of NADPH regenerating system by LC-MS/MS analysis; type: ADME, Microsome; conditions: read-out: Stabilty
[7] = Microsomal stability in human liver microsomes assessed as parent compound remaining after 60 mins in absence of NADPH regenerating system by LC-MS/MS analysis; type: ADME, Microsome; conditions: read-out: Stabilty
Cytochrome P450 2C9 = Cytochrome P450 2C9 (Homo sapiens, UniProt P11712); assay: Inhibition of CYP2C9 in human liver microsomes at 10 uM by LC-MS/MS analysis; type: ADME
Cytochrome P450 2C19 = Cytochrome P450 2C19 (Homo sapiens, UniProt P33261); assay: Inhibition of CYP2C19 in human liver microsomes at 10 uM by LC-MS/MS analysis; type: ADME
Cytochrome P450 2D6 = Cytochrome P450 2D6 (Homo sapiens, UniProt P10635); assay: Inhibition of CYP2D6 in human liver microsomes at 10 uM by LC-MS/MS analysis; type: ADME
Cytochrome P450 3A4 = Cytochrome P450 3A4 (Homo sapiens, UniProt P08684); assay: Inhibition of CYP3A4 in human liver microsomes at 10 uM by LC-MS/MS analysis; type: ADME
Cytochrome P450 1A2 = molecular target: T3, Cytochrome P450 1A2 (Homo sapiens, UniProt P05177); assay: Inhibition of CYP1A2 in human liver microsomes at 10 uM by LC-MS/MS analysis; type: ADME
T3 sequence (P05177 whole entry): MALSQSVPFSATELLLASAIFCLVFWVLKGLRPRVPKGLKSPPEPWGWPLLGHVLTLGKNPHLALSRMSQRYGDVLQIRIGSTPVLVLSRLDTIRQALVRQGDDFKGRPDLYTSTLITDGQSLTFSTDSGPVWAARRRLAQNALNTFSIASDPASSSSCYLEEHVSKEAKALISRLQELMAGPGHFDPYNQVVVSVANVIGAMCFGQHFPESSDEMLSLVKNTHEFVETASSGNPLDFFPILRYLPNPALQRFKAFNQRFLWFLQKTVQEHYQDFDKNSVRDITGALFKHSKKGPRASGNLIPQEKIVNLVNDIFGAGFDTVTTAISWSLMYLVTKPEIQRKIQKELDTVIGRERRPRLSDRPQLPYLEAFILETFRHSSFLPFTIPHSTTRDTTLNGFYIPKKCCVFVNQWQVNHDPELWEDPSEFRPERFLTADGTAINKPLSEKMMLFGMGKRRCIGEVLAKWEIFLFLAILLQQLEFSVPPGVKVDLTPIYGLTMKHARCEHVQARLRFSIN

MCF7 = assay: cells; conditions: Homo sapiens, MCF7, 72 h
Description: Antiproliferative activity against human MCF7 cells assessed as reduction in cell viability incubated for 72 hrs by CCK8 assay

MGC-803 [8] = assay: cells; conditions: Homo sapiens, MGC-803, 72 h
Description: Antiproliferative activity against human MGC-803 cells assessed as reduction in cell viability incubated for 72 hrs by CCK8 assay

NCI-H460 [9] = assay: cells; conditions: Homo sapiens, NCI-H460, 72 h
Description: Antiproliferative activity against human NCI-H460 cells assessed as reduction in cell viability incubated for 72 hrs by CCK8 assay

A549 = assay: cells; conditions: Homo sapiens, A549, 72 h
Description: Antiproliferative activity against human A549 cells assessed as reduction in cell viability incubated for 72 hrs by CCK8 assay

THP-1 = assay: cells; conditions: Homo sapiens, THP-1, 72 h
Description: Antiproliferative activity against human THP-1 cells assessed as reduction in cell viability incubated for 72 hrs by CCK8 assay

THLE-2 = assay: cells; conditions: Homo sapiens, THLE-2, 72 h
Description: Cytotoxicity against human THLE-2 cells assessed as reduction in cell viability incubated for 72 hrs by CCK8 assay

NCI-H460 [10] = assay: Induction of apoptosis in human NCI-H460 cells assessed as early apoptotic cells at 1 uM incubated for 48 hrs by AnnexinV-FITC/propidium iodide staining based flow cytometric analysis (reference value: 2.22%); type: functional
NCI-H460 [11] = assay: Induction of apoptosis in human NCI-H460 cells assessed as late apoptotic cells at 1 uM incubated for 48 hrs by AnnexinV-FITC/propidium iodide staining based flow cytometric analysis (reference value: 1.36%); type: functional
NCI-H460 [12] = assay: Induction of apoptosis in human NCI-H460 cells assessed as early apoptotic cells at 2 uM incubated for 48 hrs by AnnexinV-FITC/propidium iodide staining based flow cytometric analysis (reference value: 2.22%); type: functional
NCI-H460 [13] = assay: Induction of apoptosis in human NCI-H460 cells assessed as late apoptotic cells at 2 uM incubated for 48 hrs by AnnexinV-FITC/propidium iodide staining based flow cytometric analysis (reference value: 1.36%); type: functional
NCI-H460 [14] = assay: Induction of apoptosis in human NCI-H460 cells assessed as early apoptotic cells at 3 uM incubated for 48 hrs by AnnexinV-FITC/propidium iodide staining based flow cytometric analysis (reference value: 2.22%); type: functional
NCI-H460 [15] = assay: Induction of apoptosis in human NCI-H460 cells assessed as late apoptotic cells at 3 uM incubated for 48 hrs by AnnexinV-FITC/propidium iodide staining based flow cytometric analysis (reference value: 1.36%); type: functional
NCI-H460 [16] = assay: Inhibition of cell migration in human NCI-H460 cells assessed as reduction in cell migration measured after 48 hrs by wound healing assay; type: functional, cell-based; conditions: dose 0.3-1.2 µM
NCI-H460 [17] = assay: Inhibition of cell migration in human NCI-H460 assessed as reduction in cell migration at 0.3 to 1.2 uM by wound healing assay; type: functional, cell-based; conditions: dose 0.3-1.2 µM, time 24-48 hrs, TDE = time-dependent effect
NCI-H460 [18] = assay: Antitumor activity against human NCI-H460 cells xenografted in BALB/c mouse assessed as reduction in tumor weight at 20 mg/kg/day, ip for 15 days; type: functional; conditions: 360 h, time 15 day
NCI-H460 [19] = assay: Antitumor activity against human NCI-H460 cells xenografted in BALB/c mouse assessed as reduction in tumor volume at 20 mg/kg/day, ip for 15 days; type: functional; conditions: 360 h, time 15 day
[20] = Toxicity in BALB/c mouse xenografted with human NCI-H460 cells assessed as body weight at 10 to 20 mg/kg/day, ip for 15 days and measured every 3 days; type: organism-based; conditions: in vivo, 360 h, dose 10-20 mg/kg/day, time 15 day
MGC-803 [21] = assay: Antiproliferative activity against human MGC-803 cells assessed as inhibition of cell growth by MTT assay; type: functional, cell-based
[22] = molecular target: Lysine-specific histone demethylase 1A (Homo sapiens, UniProt O60341); assay: Inhibition of human recombinant LSD1 by horseradish peroxidase-coupled fluorometric assay

Cytochrome P450 2C19, sequence (P33261 whole entry): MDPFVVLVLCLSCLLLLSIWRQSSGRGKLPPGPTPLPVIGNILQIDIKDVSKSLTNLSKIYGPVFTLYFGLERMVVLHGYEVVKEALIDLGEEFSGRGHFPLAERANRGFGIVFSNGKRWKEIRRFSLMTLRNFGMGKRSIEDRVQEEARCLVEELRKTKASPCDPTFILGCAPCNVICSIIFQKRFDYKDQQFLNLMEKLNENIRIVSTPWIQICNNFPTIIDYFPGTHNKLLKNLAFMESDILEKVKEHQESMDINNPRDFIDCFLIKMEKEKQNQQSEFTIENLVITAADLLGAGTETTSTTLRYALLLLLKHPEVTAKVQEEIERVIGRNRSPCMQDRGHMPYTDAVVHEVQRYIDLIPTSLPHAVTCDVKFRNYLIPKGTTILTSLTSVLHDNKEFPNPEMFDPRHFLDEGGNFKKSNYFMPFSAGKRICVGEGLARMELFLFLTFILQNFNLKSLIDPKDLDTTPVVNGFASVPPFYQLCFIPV
Cytochrome P450 2D6, sequence (P10635 whole entry): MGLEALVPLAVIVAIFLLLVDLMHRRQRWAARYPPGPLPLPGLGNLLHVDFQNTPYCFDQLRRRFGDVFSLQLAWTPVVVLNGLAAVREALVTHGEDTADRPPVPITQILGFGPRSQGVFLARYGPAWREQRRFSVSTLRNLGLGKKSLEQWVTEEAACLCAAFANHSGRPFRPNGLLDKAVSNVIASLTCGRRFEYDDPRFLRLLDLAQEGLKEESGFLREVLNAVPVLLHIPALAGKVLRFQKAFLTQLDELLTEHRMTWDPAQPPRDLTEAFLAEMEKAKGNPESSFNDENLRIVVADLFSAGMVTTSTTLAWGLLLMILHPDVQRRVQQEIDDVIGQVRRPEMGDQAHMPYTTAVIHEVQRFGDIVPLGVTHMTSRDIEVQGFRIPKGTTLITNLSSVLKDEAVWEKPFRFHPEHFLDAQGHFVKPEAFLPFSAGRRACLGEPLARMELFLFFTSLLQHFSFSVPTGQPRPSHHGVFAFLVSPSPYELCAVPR
Cytochrome P450 3A4, sequence (P08684 whole entry): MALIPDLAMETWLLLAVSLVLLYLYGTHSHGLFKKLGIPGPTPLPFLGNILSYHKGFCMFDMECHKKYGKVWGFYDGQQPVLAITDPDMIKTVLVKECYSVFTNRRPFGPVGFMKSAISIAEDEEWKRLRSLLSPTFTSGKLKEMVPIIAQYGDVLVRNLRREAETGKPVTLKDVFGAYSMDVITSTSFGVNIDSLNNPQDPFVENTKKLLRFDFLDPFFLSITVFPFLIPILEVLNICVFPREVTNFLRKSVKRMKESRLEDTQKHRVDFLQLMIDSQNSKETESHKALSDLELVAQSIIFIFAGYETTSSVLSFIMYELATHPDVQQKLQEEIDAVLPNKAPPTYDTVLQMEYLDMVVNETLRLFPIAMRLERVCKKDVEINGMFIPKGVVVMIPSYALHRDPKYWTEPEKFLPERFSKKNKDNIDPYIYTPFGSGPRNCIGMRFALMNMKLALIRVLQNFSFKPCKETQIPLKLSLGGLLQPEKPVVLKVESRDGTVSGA
Cytochrome P450 2C9, sequence (P11712 whole entry): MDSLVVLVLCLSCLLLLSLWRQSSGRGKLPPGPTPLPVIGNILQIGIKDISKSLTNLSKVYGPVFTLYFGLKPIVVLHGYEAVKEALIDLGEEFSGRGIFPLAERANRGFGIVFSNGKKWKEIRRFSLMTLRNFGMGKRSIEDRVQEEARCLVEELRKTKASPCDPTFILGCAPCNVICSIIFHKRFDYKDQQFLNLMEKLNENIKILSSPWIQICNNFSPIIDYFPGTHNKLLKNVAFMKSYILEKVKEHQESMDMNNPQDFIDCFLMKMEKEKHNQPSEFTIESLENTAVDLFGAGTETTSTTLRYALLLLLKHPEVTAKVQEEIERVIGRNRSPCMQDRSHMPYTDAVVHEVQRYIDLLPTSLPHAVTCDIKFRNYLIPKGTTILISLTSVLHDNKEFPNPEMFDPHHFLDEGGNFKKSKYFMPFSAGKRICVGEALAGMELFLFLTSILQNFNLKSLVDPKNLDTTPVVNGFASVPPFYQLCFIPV

Row | Structure (SMILES) | IC50 [1] [µM] | IC50 [2] [µM] | half-life [3] [h] | microsomal CLint [4] [µL/min/mg] | CLint scaled [5] [mL/min/kg] | remaining at 1 h [6] [%] | remaining at 1 h [7] [%] | inhibition (INH) (Cytochrome P450 2C9) | inhibition (INH) (Cytochrome P450 2C19) | inhibition (INH) (Cytochrome P450 2D6) | inhibition (INH) (Cytochrome P450 3A4) | inhibition (INH) (Cytochrome P450 1A2) | IC50 (MCF7) [µM] | IC50 (MGC-803 [8]) [µM] | IC50 (NCI-H460 [9]) [µM] | IC50 (A549) [µM] | IC50 (THP-1) [µM] | IC50 (THLE-2) [µM] | further results
1 | Cc1ccc(-c2cc3occ(CNC4CCNC4)c3cc2-c2ccc(C#N)cc2)cc1 (centres undefined) | > 20 | > 20 | 1.58 | 14.6 | 13.2 | 65.2 | 56.7 | Active | Active | Active | Active | Active | 3.29 | 5.83 | 2.13 | 5.5 | 6 | 4.76 | 
2 | Cc1ccc(-c2ncc(OCC3CCNCC3)cc2-c2ccc(C#N)cc2)cc1 |  |  | 1.78 | 13 | 11.7 | 67.5 | 88.6 | Active | Active | Active | Active | Active | 16.9 | 12.4 |  | 9.73 | 34 | 7.83 | Activity (NCI-H460 [10]): 1.49%; Activity (NCI-H460 [11]): 1.12%; Activity (NCI-H460 [12]): 1.29%; Activity (NCI-H460 [13]): 0.9%; Activity (NCI-H460 [14]): 1.6%; Activity (NCI-H460 [15]): 1.21%; inhibition (NCI-H460 [16]): Dose-Dependent Effect; inhibition (NCI-H460 [17]): Tde
3 | Cc1ccc(-c2cc3occ(CN4CCC[C@H](N)C4)c3cc2-c2ccc(C#N)cc2)cc1 | > 20 | > 20 |  |  |  | 47 | 76.1 | Active | Active | Active | Active | Active | 2.9 | 5.85 | 2.06 | 5.74 | 6.15 | 7.07 | Activity (NCI-H460 [10]): 2.22%; Activity (NCI-H460 [11]): 0.87%; Activity (NCI-H460 [12]): 6.78%; Activity (NCI-H460 [13]): 2.77%; Activity (NCI-H460 [14]): 19.13%; Activity (NCI-H460 [15]): 11.01%; inhibition (NCI-H460 [16]): Dose-Dependent Effect; inhibition (NCI-H460 [17]): Tde; inhibition in vivo at 20 mg/kg/day (NCI-H460 [18]): 64%; inhibition in vivo at 20 mg/kg/day (NCI-H460 [19]): 68%; Activity [20]: Non-Toxic
4 | O=C(O)[C@H]1O[C@@H](Oc2cc3oc(-c4ccccc4)cc(=O)c3c(O)c2O)[C@H](O)[C@@H](O)[C@@H]1O [BAICALIN] |  |  |  |  |  |  |  |  |  |  |  |  |  |  |  |  |  |  | IC50 (MGC-803 [21]): 8.78 µM
5 | NC1C[C@@H]1c1ccc(-c2cccc(O)c2)cc1 (single isomer, unassigned) |  |  |  |  |  |  |  |  |  |  |  |  |  |  |  |  |  |  | IC50 [22]: 40.5 µM
6 | CNCCCN(C)Cc1coc2cc(-c3ccc(C)cc3)c(-c3ccc(C#N)cc3)cc12 | > 20 | > 20 | 0.168 | 138 | 124 | 7.9 | 55.8 | Active | Active | Active | Active | Active | 3.36 | 6.47 | 1.87 | 4.08 | 4.87 | 4.2 | 

Second part, led by results:

Row | IC50 [1] [µM] | IC50 [2] [µM] | half-life [3] [h] | microsomal CLint [4] [µL/min/mg] | CLint scaled [5] [mL/min/kg] | remaining at 1 h [6] [%] | remaining at 1 h [7] [%] | inhibition (INH) (Cytochrome P450 2C9) | inhibition (INH) (Cytochrome P450 2C19) | inhibition (INH) (Cytochrome P450 2D6) | inhibition (INH) (Cytochrome P450 3A4) | inhibition (INH) (Cytochrome P450 1A2) | IC50 (MCF7) [µM] | IC50 (MGC-803 [8]) [µM] | IC50 (NCI-H460 [9]) [µM] | IC50 (A549) [µM] | IC50 (THP-1) [µM] | IC50 (THLE-2) [µM] | Structure (SMILES) | further results
7 |  |  |  |  |  |  |  |  |  |  |  |  | 4.31 | 6.27 | 1.58 | 6.33 | 7.06 | 1.41 | Cc1ccc(-c2cc3occ(CNC4CCC(N)CC4)c3cc2-c2ccc(C#N)cc2)cc1 (centres undefined) | 
8 |  |  |  |  |  |  |  |  |  |  |  |  | 5.72 | 7.55 | 1.9 | 2.45 | 6.68 | 3.94 | Cc1ccc(-c2cc3occ(CNCCN)c3cc2-c2ccc(C#N)cc2)cc1 | 
